Results: patent US12643912B2, “Macrocyclic compounds, a process for their preparation and pharmaceutical compositions containing them” (LES LABORATOIRES SERVIER, priority 2020, dated 2026)
Read-outs that look alike come from different tables or passages of the source.

How the values were obtained:
[1] = test system: Nrf2 (Keap1-NRF2 nuclear translocation); assay: U2OS translocation assay (PathHunter U2OS Keap1-NRF2 Nuclear Translocation Cell Line); type: cell-based
How it was run: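 PathHunter U2OS line expressing Nrf2-enzyme-donor fusion and nuclear acceptor enzyme, 7 500 cells/well in Opti-MEM, 1% FBS. Compounds incubated 3 h at 37° C. Luminescence after 60 min with detection reagent, normalized between 1% DMSO and 10 μM andrographolide.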

Keap1 (A321-C624) (h) = target: T1, Keap1 (A321-C624) (h) (Homo sapiens, UniProt Q14145); assay: Surface Plasmon Resonance binding assay to Kelch domain of KEAP1; details: Biacore T200, 25° C., immobilized His-Thromb-KEAP1(A321-C624), single cycle kinetics, KD=kd/ka from 1:1 fit; read-out: Keap1 (A321-C624) (h) direct/SPR (KD)
T1 construct: His-Thromb-KEAP1(A321-C624) acquired from Novalix (batch PU-P01) was immobilized covalently by amine coupling; His tag (N); thrombin cleavage site (Thromb) (N); purchased Novalix batch PU-P01
T1 sequence (Q14145 321-624): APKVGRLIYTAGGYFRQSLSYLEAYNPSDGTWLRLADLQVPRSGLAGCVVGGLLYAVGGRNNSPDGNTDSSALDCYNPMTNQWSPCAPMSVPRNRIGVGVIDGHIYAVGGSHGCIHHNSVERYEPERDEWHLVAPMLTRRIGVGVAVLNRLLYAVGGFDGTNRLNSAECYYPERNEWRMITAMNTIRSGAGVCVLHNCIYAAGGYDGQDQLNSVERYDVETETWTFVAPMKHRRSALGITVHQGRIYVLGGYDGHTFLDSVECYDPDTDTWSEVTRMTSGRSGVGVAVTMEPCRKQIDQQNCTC
Procedure: EXAMPLE 85: SURFACE PLASMON RESONANCE
Binding assay to Kelch domain of KEAP1 was performed by Surface Plasmon Resonance (SPR) on a Biacore T200 (GE Healthcare) at 25° C. using CM5 chip. His-Thromb-KEAP1(A321-C624) acquired from Novalix (batch PU-P01) was immobilized covalently by amine coupling using standard wizard protocol, at a concentration of 20 μg/mL in sodium acetate pH 5.5. The ligand was captured until 1250 RU was reached. Amine blank is used as the reference flow cell. Binding of analyte to the ligand was monitored in real time with associations of 180 seconds and a dissociation of 720 seconds. Association (ka) and dissociation (kd) rates were fitted with a simple 1:1 kinetic interaction model using Biacore T200 Evaluation Software (GE Healthcare). The equilibrium constant (KD=kd/ka) was calculated from these fitted parameters. […] The Biacore binding assay was performed with a flowrate of 50 μL/min using a running buffer of 10 mM HEPES (pH 7.4), 150 mM NaCl, 3 mM EDTA, 1 mM TCEP, 0.05% P20,5% DMSO. Double subtraction was used by subtracting both reference flow cell and previous blank cycle (with running buffer). Solvent correction was applied to correct DMSO bulk effect.

[2] = read-out: CELLULAR U2OS EC50, U2OS Keap1-NRF2 nuclear translocation cells, 3 h incubation, luminescence, normalized between 1% DMSO and 10 μM andrographolide
[3] = Homo sapiens, U2OS, 3 h, read-out: CELLULAR U2OS EC50 (nM), U2OS Keap1-NRF2 nuclear translocation cells, 3 h incubation, luminescence, normalized between 1% DMSO and 10 μM andrographolide

Cc1ccc2cc1CN1Cc3cc(ccc3N(C)S1(=O)=O)OCCCCn1nnc3c(C)c(ccc31)C2CC(=O)O (single isomer, unassigned) [Example 39b, [4,26,31-Trimethyl-27,27-dioxo-21-oxa-27λ^6-thia-1,14,15,16,26-pentaazahexacyclo[20.5.3.1^3,70.1^9,130.0^12,160.0^25,29]dotriaconta-3(32),4,6,9(31),10,12,14,22,24,29-decaen-8-yl]acetic acid]
EC50 [1, 2]: 79.5 nM
Kd (Keap1 (A321-C624) (h)): 0.685 nM

Cc1ccc2cc1CN1Cc3cc(ccc3OS1(=O)=O)OC[C@H](C)CCn1nnc3c(C)c(ccc31)C2CC(=O)O (single isomer, unassigned) [Example 45a]
EC50 [1, 2]: 11.8 nM
Kd (Keap1 (A321-C624) (h)): 0.594 nM

Cc1ccc2cc1[C@@H](C)N1Cc3cc(ccc3OS1(=O)=O)OCCCN(C)CCn1nnc3c(C)c(ccc31)[C@H]2CC(=O)O [Example 21a, [(2R,8S)-2,4,19,33-Tetramethyl-29,29-dioxo-23,28-dioxa-29λ^6-thia-1,14,15,16,19-pentaazahexacyclo[22.5.3.1^3,70.1^9,130.0^12,160.0^27,31]tetratriaconta-3(34),4,6,9(33),10,12,14,24,26,31-decaen-8-yl]acetic acid]
EC50 [1, 3]: 10.9 nM
Kd (Keap1 (A321-C624) (h)): 2.55 nM

COCCC1CCOc2ccc3c(c2)CN([C@H](C)c2cc(ccc2C)[C@@H](CC(=O)O)c2ccc4c(nnn4C1)c2C)S(=O)(=O)O3 (single isomer, unassigned) [Example 24d]
EC50 [1, 2]: 36.4 nM
Kd (Keap1 (A321-C624) (h)): 4.32 nM

COc1ccc2cc1[C@@H](C)N1Cc3cc(ccc3OS1(=O)=O)OCCCCCCn1nnc3c(C)c(ccc31)[C@H]2CC(=O)O [Example 40a, [(2R,8S)-4-methoxy-2,33-dimethyl-29,29-dioxo-23,28-dioxa-29λ^6-thia-1,14,15,16-tetraazahexacyclo[22.5.3.1^3,70.1^9,130.0^12,160.0^27,31]tetratriaconta-3(34),4,6,9(33),10,12,14,24,26,31-decaen-8-yl]acetic acid]
EC50 [1, 3]: 9.72 nM
Kd (Keap1 (A321-C624) (h)): 5.51 nM

Cc1c(F)cc2cc1CN1Cc3cc(ccc3OS1(=O)=O)OCCCCn1nnc3c(C)c(ccc31)C2CC(=O)O (single isomer, unassigned) [Example 18a, [5-Fluoro-4,31-dimethyl-27,27-dioxo-21,26-dioxa-27λ^6-thia-1,14,15,16-tetraazahexacyclo[20.5.3.1^3,70.1^9,130.0^12,160.0^25,29]dotriaconta-3(32),4,6,9(31),10,12,14,22,24,29-decaen-8-yl]acetic acid]
EC50 [1, 2]: 1140 nM
Kd (Keap1 (A321-C624) (h)): 3.67 nM

COc1cc2cc3c1OS(=O)(=O)N(Cc1cc(ccc1C)C(CC(=O)O)c1ccc4c(nnn4CCCCO2)c1C)C3 (single isomer, unassigned) [Example 16b, [24-Methoxy-4,31-dimethyl-27,27-dioxo-21,26-dioxa-27λ^6-thia-1,14,15,16-tetraazahexacyclo[20.5.3.1^3,70.1^9,130.0^12,160.0^25,29]dotriaconta-3(32),4,6,9(31),10,12,14,22,24,29-decaen-8-yl]acetic acid]
EC50 [1, 2]: 108 nM
Kd (Keap1 (A321-C624) (h)): 1.73 nM

COc1ccc2cc1[C@@H](C)N1Cc3cc(ccc3OS1(=O)=O)OCCCCn1nnc3c(C)c(ccc31)[C@@H]2CC(=O)O [Example 28a, [(2R,8R)-4-Methoxy-2,31-dimethyl-27,27-dioxo-21,26-dioxa-27λ^6-thia-1,14,15,16-tetraazahexacyclo[20.5.3.1^3,70.1^9,130.0^12,160.0^25,29]dotriaconta-3(32),4,6,9(31),10,12,14,22,24,29-decaen-8-yl]acetic acid]
EC50 [1, 3]: 611 nM
Kd (Keap1 (A321-C624) (h)): 23.4 nM

Cc1ccc2cc1[C@@H](C)N1Cc3cc(ccc3OS1(=O)=O)OCCCCCCn1nnc3c(C)c(ccc31)[C@@H]2CC(=O)O [Example 19a, [(2R,8R)-2,4,33-Trimethyl-29,29-dioxo-23,28-dioxa-29λ^6-thia-1,14,15,16-tetraazahexacyclo[22.5.3.1^3,70.1^9,130.0^12,160.0^27,31]tetratriaconta-3(34),4,6,9(33),10,12,14,24,26,31-decaen-8-yl]acetic acid]
EC50 [1, 3]: 73.6 nM
Kd (Keap1 (A321-C624) (h)): 1.34 nM

Cc1ccc2cc1CN1Cc3cc(ccc3OS1(=O)=O)OCc1ccccc1OCCCn1nnc3c(C)c(ccc31)C2CC(=O)O (single isomer, unassigned) [Example 57a, [4,38-Dimethyl-34,34-dioxo-20,28,33-trioxa-34λ^6-thia-1,14,15,16-tetraazaheptacyclo[27.5.3.1^3,70.1^9,130.0^12,160.0^21,260.0^32,36]nonatriaconta-3(39),4,6,9(38),10,12,14,21,23,25,29,31,36-tridecaen-8-yl]acetic acid]
EC50 [1, 2]: 496 nM
Kd (Keap1 (A321-C624) (h)): 58.9 nM

Cc1ccc2cc1[C@@H](C)N1Cc3cc(ccc3OS1(=O)=O)OCCCCn1nnc3c(C)c(ccc31)[C@H]2CC(=O)O [Example 3b, [(2R,8S)-2,4,31-trimethyl-27,27-dioxo-21,26-dioxa-27λ^6-thia-1,14,15,16-tetraazahexacyclo[20.5.3.1^3,70.1^9,130.0^12,160.0^25,29]dotriaconta-3(32),4,6,9(31),10,12,14,22,24,29-decaen-8-yl]acetic acid]
EC50 [1, 3]: 10.6 nM
Kd (Keap1 (A321-C624) (h)): 1.05 nM

Cc1c2ccc3c1nnn3CCCCOc1ccc3c(c1)CN(Cc1cc(ccc1Cl)C2CC(=O)O)S(=O)(=O)O3 (single isomer, unassigned) [Example 9b, [4-Chloro-31-methyl-27,27-dioxo-21,26-dioxa-27λ^6-thia-1,14,15,16-tetraazahexacyclo[20.5.3.1^3,70.1^9,130.0^12,160.0^25,29]dotriaconta-3(32),4,6,9(31),10,12,14,22,24,29-decaen-8-yl]acetic acid]
EC50 [1, 2]: 845 nM
Kd (Keap1 (A321-C624) (h)): 9.99 nM

COc1ccc2cc1CN1Cc3cc(ccc3OS1(=O)=O)OCCOCCn1nnc3c(C)c(ccc31)C2CC(=O)O (single isomer, unassigned) [Example 59a, [4-Methoxy-32-methyl-28,28-dioxo-19,22,27-trioxa-28λ^6-thia-1,14,15,16-tetraazahexacyclo[21.5.3.1^3,70.1^9,130.0^12,160.0^26,30]tritriaconta-3(33),4,6,9(32),10,12,14,23,25,30-decaen-8-yl]acetic acid]
EC50 [1, 3]: 311 nM
Kd (Keap1 (A321-C624) (h)): 5.07 nM

Cc1ccc2cc1[C@@H](C)N1Cc3cc(ccc3OS1(=O)=O)OCCCCCn1nnc3c(C)c(ccc31)[C@@H]2CC(=O)O [Example 20b, [(2R,8R)-2,4,32-trimethyl-28,28-dioxo-22,27-dioxa-28λ^6-thia-1,14,15,16-tetraazahexacyclo[21.5.3.1^3,70.1^9,130.0^12,160.0^26,30]tritriaconta-3(33),4,6,9(32),10,12,14,23,25,30-decaen-8-yl]acetic acid]
EC50 [1, 3]: 131 nM
Kd (Keap1 (A321-C624) (h)): 2.3 nM

Cc1ccc2cc1[C@@H](C)N1Cc3cc(ccc3OS1(=O)=O)OCCCN(C)CCn1nnc3c(C)c(ccc31)[C@@H]2CC(=O)O [Example 21b, [(2R,8R)-2,4,19,33-tetramethyl-29,29-dioxo-23,28-dioxa-29λ^6-thia-1,14,15,16,19-pentaazahexacyclo[22.5.3.1^3,70.1^9,130.0^12,160.0^27,31]tetratriaconta-3(34),4,6,9(33),10,12,14,24,26,31-decaen-8-yl]acetic acid]
EC50 [1, 3]: 166 nM
Kd (Keap1 (A321-C624) (h)): 20.8 nM

Cc1ccc2cc1[C@@H](C)N1Cc3cc(ccc3OS1(=O)=O)OCCN(C)CCCn1nnc3c(C)c(ccc31)[C@@H]2CC(=O)O [Example 34b, [(2R,8R)-2,4,20,33-tetramethyl-29,29-dioxo-23,28-dioxa-29λ^6-thia-1,14,15,16,20-pentaazahexacyclo[22.5.3.1^3,70.1^9,130.0^12,160.0^27,31]tetratriaconta-3(34),4,6,9(33),10,12,14,24,26,31-decaen-8-yl]acetic acid]
EC50 [1, 3]: 31.1 nM
Kd (Keap1 (A321-C624) (h)): 1.85 nM

Cc1ccc2cc1CN1Cc3cc(ccc3OS1(=O)=O)OCCCCCCn1nnc3c(C)c(ccc31)C2CC(=O)O (single isomer, unassigned) [Example 11a, [4,33-Dimethyl-29,29-dioxo-23,28-dioxa-29λ^6-thia-1,14,15,16-tetraazahexacyclo[22.5.3.1^3,70.1^9,130.0^12,160.0^27,31]tetratriaconta-3(34),4,6,9(33),10,12,14,24,26,31-decaen-8-yl]acetic acid]
EC50 [1, 2]: 109 nM
Kd (Keap1 (A321-C624) (h)): 2.42 nM

Cc1ccc2cc1[C@@H](C)N1Cc3cc(ccc3OS1(=O)=O)OCCC1(CCOCC1)Cn1nnc3c(C)c(ccc31)C2CC(=O)O (stereo partly drawn) [Example 68, [(2R)-2,4,31-Trimethyl-27,27-dioxo-27λ^6-spiro[21,26-dioxa-27-thia-1,14,15,16-tetraazahexacyclo[20.5.3.1^3,70.1^9,130.0^12,160.0^25,29]dotriaconta-3(32),4,6,9(31),10,12,14,22,24,29-decaene-18,4′-oxan]-8-yl]acetic acid]
EC50 [1, 3]: 38.3 nM
Kd (Keap1 (A321-C624) (h)): 8.96 nM
